Results reported in ChEMBL document CHEMBL1142734, “Biological properties of D- and L-1-deoxyazasugars” (J Med Chem, 2005).
pKi: −log10 of the molar value.

Experiments:
[1] = biological target: T1, Beta-galactosidase (Bos taurus) (UniProt Q58D55); experiment: Percent inhibition of beta-galactosidase of bovine liver at 1000 uM
T1 sequence (whole entry): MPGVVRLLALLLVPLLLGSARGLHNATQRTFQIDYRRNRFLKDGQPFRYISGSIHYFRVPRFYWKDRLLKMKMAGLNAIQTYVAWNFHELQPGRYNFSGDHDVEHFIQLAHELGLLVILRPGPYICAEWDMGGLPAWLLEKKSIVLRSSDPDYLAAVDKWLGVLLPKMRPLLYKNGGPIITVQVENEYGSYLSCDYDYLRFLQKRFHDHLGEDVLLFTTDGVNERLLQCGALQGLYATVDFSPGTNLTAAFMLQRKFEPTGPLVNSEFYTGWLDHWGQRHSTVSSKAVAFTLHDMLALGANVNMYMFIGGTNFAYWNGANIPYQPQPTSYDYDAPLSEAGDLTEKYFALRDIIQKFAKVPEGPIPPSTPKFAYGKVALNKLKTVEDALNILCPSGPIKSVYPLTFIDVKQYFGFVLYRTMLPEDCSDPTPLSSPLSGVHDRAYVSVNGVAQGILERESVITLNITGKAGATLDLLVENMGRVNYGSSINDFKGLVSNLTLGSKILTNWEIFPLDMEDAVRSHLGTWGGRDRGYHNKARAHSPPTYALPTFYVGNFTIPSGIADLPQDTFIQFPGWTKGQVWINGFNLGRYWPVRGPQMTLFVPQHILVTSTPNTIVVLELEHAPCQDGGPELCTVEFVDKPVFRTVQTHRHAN

[2] = biological target: T2, Beta-mannosidase (Rattus norvegicus) (UniProt Q4FZV0); experiment: Percent inhibition of beta-mannosidase of rat epididymis at 1000 uM
T2 sequence (whole entry): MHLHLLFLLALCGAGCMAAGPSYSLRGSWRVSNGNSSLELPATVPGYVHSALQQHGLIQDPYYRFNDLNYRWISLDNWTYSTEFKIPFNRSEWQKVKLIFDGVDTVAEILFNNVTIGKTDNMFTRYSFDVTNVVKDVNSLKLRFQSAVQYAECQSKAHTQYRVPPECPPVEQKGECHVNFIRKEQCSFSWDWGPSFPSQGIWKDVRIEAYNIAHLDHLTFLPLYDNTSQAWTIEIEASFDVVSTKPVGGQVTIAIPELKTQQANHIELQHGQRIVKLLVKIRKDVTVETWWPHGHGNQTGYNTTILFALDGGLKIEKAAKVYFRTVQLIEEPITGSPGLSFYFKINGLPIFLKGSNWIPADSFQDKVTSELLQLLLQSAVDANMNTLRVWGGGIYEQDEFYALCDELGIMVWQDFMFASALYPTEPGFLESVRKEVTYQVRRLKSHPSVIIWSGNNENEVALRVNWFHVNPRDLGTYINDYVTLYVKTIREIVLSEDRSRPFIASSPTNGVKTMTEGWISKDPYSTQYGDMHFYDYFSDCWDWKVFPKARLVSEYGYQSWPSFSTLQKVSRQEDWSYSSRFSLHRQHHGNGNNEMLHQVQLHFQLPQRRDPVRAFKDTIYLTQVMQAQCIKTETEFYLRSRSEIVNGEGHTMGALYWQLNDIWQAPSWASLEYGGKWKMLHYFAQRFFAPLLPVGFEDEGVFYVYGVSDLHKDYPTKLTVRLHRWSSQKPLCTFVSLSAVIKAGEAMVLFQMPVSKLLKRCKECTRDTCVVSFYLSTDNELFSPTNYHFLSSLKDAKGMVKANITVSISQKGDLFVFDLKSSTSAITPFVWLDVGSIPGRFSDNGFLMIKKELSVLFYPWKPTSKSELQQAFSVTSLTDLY

[3] = biological target: T3, Beta-galactosidase (Rattus norvegicus) (UniProt D3ZUM4); experiment: Percent inhibition of beta-galactosidase of rat epididymis at 1000 uM
T3 sequence (whole entry): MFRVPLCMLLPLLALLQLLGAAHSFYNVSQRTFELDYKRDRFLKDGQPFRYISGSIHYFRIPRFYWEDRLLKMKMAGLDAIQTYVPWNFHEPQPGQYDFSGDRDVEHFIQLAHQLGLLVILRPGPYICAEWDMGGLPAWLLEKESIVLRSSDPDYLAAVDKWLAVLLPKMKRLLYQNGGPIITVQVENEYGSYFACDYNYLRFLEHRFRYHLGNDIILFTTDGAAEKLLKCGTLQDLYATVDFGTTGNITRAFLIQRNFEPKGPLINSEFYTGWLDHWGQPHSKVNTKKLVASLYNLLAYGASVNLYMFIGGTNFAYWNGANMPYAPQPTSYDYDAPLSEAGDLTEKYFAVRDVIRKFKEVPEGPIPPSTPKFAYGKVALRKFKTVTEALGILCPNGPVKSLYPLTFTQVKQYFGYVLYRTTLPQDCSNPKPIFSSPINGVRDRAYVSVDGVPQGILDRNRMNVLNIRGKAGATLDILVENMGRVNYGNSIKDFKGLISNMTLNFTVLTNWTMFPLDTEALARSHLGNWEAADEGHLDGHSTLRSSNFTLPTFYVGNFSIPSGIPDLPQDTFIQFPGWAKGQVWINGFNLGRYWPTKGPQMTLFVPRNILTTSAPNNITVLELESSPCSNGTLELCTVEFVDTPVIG

[4] = biological target: T4, Alpha-galactosidase C (Aspergillus niger) (UniProt Q9UUZ4); experiment: Percent inhibition of alpha-galactosidase of Aspergillus niger at 1000 uM
T4 sequence (whole entry): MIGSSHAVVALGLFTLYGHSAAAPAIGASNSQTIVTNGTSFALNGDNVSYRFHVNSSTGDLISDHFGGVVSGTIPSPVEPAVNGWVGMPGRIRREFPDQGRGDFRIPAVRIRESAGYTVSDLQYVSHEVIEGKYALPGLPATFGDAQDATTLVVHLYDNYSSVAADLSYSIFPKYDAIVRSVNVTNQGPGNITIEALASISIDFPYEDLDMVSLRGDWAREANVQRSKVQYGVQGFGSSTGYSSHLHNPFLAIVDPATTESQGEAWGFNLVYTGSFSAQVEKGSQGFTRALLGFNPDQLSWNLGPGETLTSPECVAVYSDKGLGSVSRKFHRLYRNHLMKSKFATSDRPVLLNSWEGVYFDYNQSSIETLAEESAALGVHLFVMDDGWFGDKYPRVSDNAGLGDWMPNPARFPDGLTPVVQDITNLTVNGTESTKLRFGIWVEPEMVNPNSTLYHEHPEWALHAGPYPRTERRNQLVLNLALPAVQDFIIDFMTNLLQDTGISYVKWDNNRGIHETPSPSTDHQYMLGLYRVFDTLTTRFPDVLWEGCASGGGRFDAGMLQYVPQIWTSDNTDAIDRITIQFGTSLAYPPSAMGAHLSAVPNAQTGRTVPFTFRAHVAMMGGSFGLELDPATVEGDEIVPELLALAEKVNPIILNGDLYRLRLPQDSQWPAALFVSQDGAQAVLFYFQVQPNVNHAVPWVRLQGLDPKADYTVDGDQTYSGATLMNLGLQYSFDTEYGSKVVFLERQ

[5] = biological target: Sucrase-isomaltase, intestinal (Rattus norvegicus) (UniProt P23739); settings: 1000 uM
[6] = biological target: Alpha-galactosidase (Coffea arabica) (UniProt Q5DUH8); settings: 1000 uM
[7] = biological target: T5, Tissue alpha-L-fucosidase (Bos taurus) (UniProt Q2KIM0); settings: 1000 uM
T5 sequence (whole entry): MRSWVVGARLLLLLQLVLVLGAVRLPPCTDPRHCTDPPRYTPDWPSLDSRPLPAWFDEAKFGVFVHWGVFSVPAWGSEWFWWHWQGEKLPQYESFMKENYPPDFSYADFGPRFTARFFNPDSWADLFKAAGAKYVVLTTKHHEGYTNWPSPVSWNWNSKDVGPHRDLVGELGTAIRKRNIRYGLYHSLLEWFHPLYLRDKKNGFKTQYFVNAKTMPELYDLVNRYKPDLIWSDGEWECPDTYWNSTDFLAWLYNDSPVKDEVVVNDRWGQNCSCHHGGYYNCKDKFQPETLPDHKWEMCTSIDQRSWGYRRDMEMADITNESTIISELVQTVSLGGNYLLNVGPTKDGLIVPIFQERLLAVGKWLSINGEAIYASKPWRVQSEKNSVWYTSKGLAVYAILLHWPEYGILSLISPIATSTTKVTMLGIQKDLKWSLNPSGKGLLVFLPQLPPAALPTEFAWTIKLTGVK

[8] = biological target: T6, Tissue alpha-L-fucosidase (Bos taurus, UniProt Q2KIM0); experiment: Ki value against bovine alpha-L-fucosidase
T6 sequence (Q2KIM0 whole entry): T5 sequence (whole entry)

Chain of Alpha-galactosidase (Coffea arabica) (Q5DUH8 as listed by the source): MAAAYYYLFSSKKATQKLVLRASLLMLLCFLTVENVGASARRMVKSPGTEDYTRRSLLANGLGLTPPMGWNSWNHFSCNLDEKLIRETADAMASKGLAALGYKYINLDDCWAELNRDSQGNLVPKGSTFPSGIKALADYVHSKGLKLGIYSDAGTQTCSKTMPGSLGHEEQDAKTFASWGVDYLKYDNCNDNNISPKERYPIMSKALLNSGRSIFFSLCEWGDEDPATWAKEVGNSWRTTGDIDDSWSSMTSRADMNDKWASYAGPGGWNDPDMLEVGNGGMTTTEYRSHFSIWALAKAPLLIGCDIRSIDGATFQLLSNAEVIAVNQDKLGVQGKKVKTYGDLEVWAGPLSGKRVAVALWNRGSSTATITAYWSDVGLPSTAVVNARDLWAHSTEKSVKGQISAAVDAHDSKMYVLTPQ
Chain of Sucrase-isomaltase, intestinal (Rattus norvegicus) (P23739 1-1013 limits assumed): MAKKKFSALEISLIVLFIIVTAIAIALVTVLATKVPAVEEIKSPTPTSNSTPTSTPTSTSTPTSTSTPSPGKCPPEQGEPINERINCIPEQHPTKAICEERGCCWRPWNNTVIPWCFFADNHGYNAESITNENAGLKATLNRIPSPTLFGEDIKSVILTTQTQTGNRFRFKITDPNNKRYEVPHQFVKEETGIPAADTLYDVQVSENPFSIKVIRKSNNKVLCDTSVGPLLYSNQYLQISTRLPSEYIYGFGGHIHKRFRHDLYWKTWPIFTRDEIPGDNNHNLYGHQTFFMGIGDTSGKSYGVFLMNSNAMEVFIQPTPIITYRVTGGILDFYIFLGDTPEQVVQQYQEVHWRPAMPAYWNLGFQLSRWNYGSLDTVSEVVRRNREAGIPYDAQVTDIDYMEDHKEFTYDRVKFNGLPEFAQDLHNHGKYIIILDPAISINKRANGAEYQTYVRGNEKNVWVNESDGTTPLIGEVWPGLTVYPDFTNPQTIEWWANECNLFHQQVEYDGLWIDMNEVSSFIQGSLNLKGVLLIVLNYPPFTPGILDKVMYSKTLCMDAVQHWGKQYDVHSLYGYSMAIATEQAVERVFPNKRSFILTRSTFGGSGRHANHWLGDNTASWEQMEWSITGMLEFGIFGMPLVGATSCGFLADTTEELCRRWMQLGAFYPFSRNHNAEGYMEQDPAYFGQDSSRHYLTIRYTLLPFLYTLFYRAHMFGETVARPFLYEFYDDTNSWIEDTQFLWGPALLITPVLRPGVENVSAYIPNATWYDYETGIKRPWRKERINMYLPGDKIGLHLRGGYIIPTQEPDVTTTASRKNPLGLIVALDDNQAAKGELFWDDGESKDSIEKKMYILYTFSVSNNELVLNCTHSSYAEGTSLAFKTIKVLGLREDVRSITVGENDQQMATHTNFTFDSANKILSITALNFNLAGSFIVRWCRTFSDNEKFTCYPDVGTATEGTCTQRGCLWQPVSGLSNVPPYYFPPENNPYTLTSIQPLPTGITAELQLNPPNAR
Chain of Sucrase-isomaltase, intestinal (Rattus norvegicus) (P23739 1014-1841 limits assumed): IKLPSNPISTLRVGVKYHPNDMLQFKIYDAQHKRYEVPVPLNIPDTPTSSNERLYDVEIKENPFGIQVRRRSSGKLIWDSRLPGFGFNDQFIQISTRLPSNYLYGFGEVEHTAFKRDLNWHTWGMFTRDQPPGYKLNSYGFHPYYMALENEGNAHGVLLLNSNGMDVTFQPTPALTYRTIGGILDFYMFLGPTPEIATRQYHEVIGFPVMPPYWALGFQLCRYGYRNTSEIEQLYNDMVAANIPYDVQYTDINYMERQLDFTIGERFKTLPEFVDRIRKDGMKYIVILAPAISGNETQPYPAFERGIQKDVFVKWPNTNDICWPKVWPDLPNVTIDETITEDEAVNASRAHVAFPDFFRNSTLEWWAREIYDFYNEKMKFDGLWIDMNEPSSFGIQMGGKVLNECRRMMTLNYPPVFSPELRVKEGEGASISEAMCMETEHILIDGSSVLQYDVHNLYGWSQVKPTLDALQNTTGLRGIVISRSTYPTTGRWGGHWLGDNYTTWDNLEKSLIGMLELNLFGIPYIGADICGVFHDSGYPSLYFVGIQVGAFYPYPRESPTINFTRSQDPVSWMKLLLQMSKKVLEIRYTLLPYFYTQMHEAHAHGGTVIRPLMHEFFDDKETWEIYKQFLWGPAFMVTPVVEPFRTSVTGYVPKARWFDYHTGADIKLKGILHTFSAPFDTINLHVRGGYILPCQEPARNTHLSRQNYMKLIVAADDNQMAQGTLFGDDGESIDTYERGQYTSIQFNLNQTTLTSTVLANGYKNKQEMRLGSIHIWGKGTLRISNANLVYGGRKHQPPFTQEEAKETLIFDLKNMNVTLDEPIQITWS

inhibition [1] [%] | inhibition [2] [%] | inhibition [3] [%] | inhibition [4] [%] | inhibition [5] [%] | inhibition [6] [%] | inhibition [7] [%] | pKi [8] | Compound
< 50 | < 50 | < 50 | < 50 | < 50 | < 50 | < 50 |  | OC[C@@H]1NC[C@H](O)[C@@H](O)[C@H]1O
< 50 |  | < 50 | < 50 | < 50 | < 50 |  |  | OC[C@H]1NC[C@@H](O)[C@H](O)[C@@H]1O
 |  |  |  |  |  |  | 8.77 | C[C@@H]1NC[C@@H](O)[C@H](O)[C@@H]1O [DEOXYFUCONOJIRIMYCIN]
